Measured values taken from patent publication US5874272A, “Inosine-guanosine kinase” (Kyowa Hakko Kogyo Co., Ltd., priority 1998, dated 1999).

Key:
Assay type in all cases: biochemical
[1] = molecular target: T1, inosine-guanosine kinase (Escherichia coli, UniProt P0AEW6); assay: Substrate specificity (phosphate-donor / phosphate-acceptor); conditions: for suitability as phosphate-donor (in words): 5 mM phosphate source instead of ATP, 300 mM KCl, 30° C., inosine as acceptor; for suitability as phosphate-acceptor (in words): ATP or dATP as phosphate-donor
T1 construct: made in house; host or cells: Escherichia coli
T1 sequence (P0AEW6 1-434): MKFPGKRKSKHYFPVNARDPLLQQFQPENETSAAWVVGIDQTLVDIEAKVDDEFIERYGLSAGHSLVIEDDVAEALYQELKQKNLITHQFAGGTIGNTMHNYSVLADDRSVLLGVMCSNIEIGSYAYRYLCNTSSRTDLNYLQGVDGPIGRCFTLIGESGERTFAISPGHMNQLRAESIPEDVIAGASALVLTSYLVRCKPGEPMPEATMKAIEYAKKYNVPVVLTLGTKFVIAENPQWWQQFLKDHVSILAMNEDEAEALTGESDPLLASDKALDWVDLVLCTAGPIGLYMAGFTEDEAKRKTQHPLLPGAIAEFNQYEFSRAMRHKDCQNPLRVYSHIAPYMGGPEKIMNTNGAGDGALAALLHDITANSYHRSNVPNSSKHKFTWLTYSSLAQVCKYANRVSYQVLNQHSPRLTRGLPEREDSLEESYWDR
Protocol: (§1) The activity of the inosine-guanosine kinase obtained is determined as follows. A reaction solution (hereafter referred to as reaction solution a) having a composition of 100 mM HEPES buffer (pH 7.2), 10 mM MgSO4, 50 mM KCl, 1 mM ATP and 1 mM inosine is brought into contact with the inosine-guanosine kinase in a concentration of about 10 μg protein/ml followed by reaction at 30° C. for about 30 minutes. During the course of reaction, a part of the reaction solution is subjected to sampling intermittently. After the reaction solution is diluted to 1/20 with 0.2M NaH2 PO4 (adjusted the pH to 2.6 with H3 PO4) to stop the reaction, an amount of 5'-IMP in the stopped reaction solution is quantitatively determined by HPLC. Analysis by HPLC is made by using 0.2M NaH2 PO4 (pH 2.6) at a flow rate of 1 ml/min. as an eluting solution and Asahipak GS-320H (manufactured by Asahi Chemical Co., Ltd.) as a column. Detection of components was made by the absorbance at UV absorbance at 254 nm as an index. Quantitative determination was made by comparing absorbancy with that of the standard.
In the method for determination of inosine-guanosine kinase activity described above, a reaction is carried out at 30° C. by changing the concentration of KCl to 300 mM in the composition of reaction solution a and adding various neutralized phosphate sources to the reaction solution instead of ATP in a final concentration of 5 mM. […] Where ATP or dATP is used as phosphate-donor, inosine and guanosine are preferred as phosphate-acceptor.
FIG. 1 relates to substrate specificity for inosine-guanosine kinase, wherein the ordinate represents an amount of 5'-IMP produced and the abscissa represents time.

[2] = molecular target: T1, inosine-guanosine kinase; assay: Activation of inosine-guanosine kinase by divalent or trivalent metal ion salts instead of MgSO4; conditions: for Produced IMP: 10 mM metal salt instead of MgSO4, 300 mM KCl; for activating action on the enzyme (in words): metal ion salt instead of MgSO4, 300 mM KCl
Protocol: as §1
In the method for determination of inosine-guanosine kinase activity described above, a reaction is carried out by changing the buffer to Tris-hydrochloride buffer (pH 8.0), and varying the concentration of KCl in the composition of reaction solution a. […] Next, activation is examined in the system where the concentration of KCl is changed to 300 mM in the composition of reaction solution a, by adding various divalent or trivalent metal ion salts instead of MgSO4.

[3] = molecular target: T1, inosine-guanosine kinase; assay: Effect of added metal salts on inosine-guanosine kinase activity (inhibitor test); conditions: 300 mM KCl; for Relative Activity (%): 1 mM metal salt added to reaction solution a, 30° C., 30 minutes, no metal salt = 100; for inhibition of the enzyme by metal ions (in words): 1 mM metal salt
Protocol: as §1
In the method for determination of inosine-guanosine kinase activity described above, the activity is determined by reacting at 30° C. for 30 minutes except that the concentration of KCl is changed to 300 mM and 1 mM metal salt is added to the composition of reaction solution a. The activity is determined as a standard when no metal salt is added. The enzyme is inhibited by metal ions such as CO^2+, Cu^2+, Zn^2+, etc.

[4] = molecular target: T1, inosine-guanosine kinase; assay: K+ (KCl) dependency of inosine-guanosine kinase; conditions: Tris-hydrochloride buffer (pH 8.0); KCl varied, or 100 mM NaCl instead of KCl
Protocol: as §1
In the method for determination of inosine-guanosine kinase activity described above, a reaction is carried out by changing the buffer to Tris-hydrochloride buffer (pH 8.0), and varying the concentration of KCl in the composition of reaction solution a. […]

Row | SMILES | suitability as phosphate-donor (in words) [1] | Produced IMP [2] [mM] | Relative Activity (%) [3] [%] | further results
1 | Nc1ncnc2c1ncn2[C@@H]1O[C@H](COP(=O)(O)O)[C@@H](O)[C@H]1O [5'-AMP, adenosine monophosphate] | could not be phosphate-donors | – | – | –
2 | Nc1ccn([C@@H]2O[C@H](COP(=O)(O)O)[C@@H](O)[C@H]2O)c(=O)n1 [5'-CMP, cytidine monophosphate] | could not be phosphate-donors | – | – | –
3 | O=C(O)c1cc(=O)[nH]c(=O)n1[C@@H]1O[C@H](COP(=O)(O)O)[C@@H](O)[C@H]1O [5'-OMP, orotic acid monophosphate] | could not be phosphate-donors | – | – | –
4 | Nc1ncnc2c1ncn2[C@@H]1O[C@H](COP(=O)(O)OP(=O)(O)O)[C@@H](O)[C@H]1O [ADP, adenosine diphosphate] | could not be phosphate-donors | – | – | –
5 | Nc1ncnc2c1ncn2[C@@H]1O[C@H](COP(=O)(O)OP(=O)(O)OP(=O)(O)O)[C@@H](O)[C@H]1O [ATP, adenosine triphosphate] | good substrate | – | – | –
6 | [Ba+2].[Cl-].[Cl-] [BaCl2] | – | 0 | 116 | –
7 | [Co+2] [CO^2+] | – | – | – | inhibition of the enzyme by metal ions (in words) [3]: inhibited
8 | [Ca+2].[Cl-].[Cl-] [CaCl2] | – | 0 | 107 | –
9 | [Cl-].[Cl-].[Co+2] [CoCl2] | – | 0.01 | 32 | –
10 | [Cl][Cu][Cl] [CuCl2] | – | 0 | 1 | –
11 | [Cu+2] [Cu^2+] | – | – | – | inhibition of the enzyme by metal ions (in words) [3]: inhibited
12 | [Cl][Fe][Cl] [FeCl2] | – | 0 | 112 | –
13 | [Cl][Fe]([Cl])[Cl] [FeCl3] | – | 0 | 131 | –
14 | Nc1nc2c(ncn2[C@@H]2O[C@H](COP(=O)(O)OP(=O)(O)OP(=O)(O)O)[C@@H](O)[C@H]2O)c(=O)[nH]1 [GTP, guanosine triphosphate] | could not be phosphate-donors | – | – | –
15 | [K+] [K^+] | – | – | – | monovalent cation requirement for activation (in words) [4]: requires
16 | [Cl-].[Cl-].[Mg+2] [MgCl2] | – | 0.60 | – | –
17 | O=S(=O)([O-])[O-].[Mg+2] [MgSO4] | – | 0.68 | – | –
18 | [Mg+2] [Mg^2+] | – | – | – | activating action on the enzyme (in words) [2]: exhibit an activating action

Row | SMILES | suitability as phosphate-donor (in words) [1] | Produced IMP [2] [mM] | Relative Activity (%) [3] [%] | further results
19 | [Cl][Mn][Cl] [MnCl2] | – | 0.51 | 134 | –
20 | O=S(=O)([O-])[O-].[Mn+2] [MnSO4] | – | 0.64 | – | –
21 | [Mn+2] [Mn^2+] | – | – | – | activating action on the enzyme (in words) [2]: exhibit an activating action
22 | [Cl-].[Na+] [NaCl] | – | – | 104 | monovalent cation requirement for activation (in words) [4]: no reaction proceeds
23 | [F-].[Na+] [NaF] | – | – | 96 | –
24 | O=c1ccn([C@@H]2O[C@H](COP(=O)(O)OP(=O)(O)OP(=O)(O)O)[C@@H](O)[C@H]2O)c(=O)[nH]1 [UTP, uridine triphosphate] | the reaction proceeds a little bit | – | – | –
25 | CC(=O)[O-].CC(=O)[O-].[Zn+2] [Zn(CH3 COO)2] | – | 0 | 5 | –
26 | O=S(=O)([O-])[O-].[Zn+2] [ZnSO4] | – | 0 | 5 | –
27 | [Zn+2] [Zn^2+] | – | – | – | inhibition of the enzyme by metal ions (in words) [3]: inhibited
28 | CC(=O)OP(=O)(O)O [acetylphosphoric acid] | could not be phosphate-donors | – | – | –
29 | Nc1ncnc2c1ncn2[C@H]1C[C@H](O)[C@@H](COP(=O)(O)OP(=O)(O)OP(=O)(O)O)O1 [dATP, deoxyadenosine triphosphate] | good substrate | – | – | –
30 | Nc1nc2c(ncn2[C@@H]2O[C@H](CO)[C@@H](O)[C@H]2O)c(=O)[nH]1 [guanosine] | – | – | – | suitability as phosphate-acceptor (in words) [1]: preferred
31 | OC[C@H]1O[C@@H](n2cnc3c(O)ncnc32)[C@H](O)[C@@H]1O [inosine] | – | – | – | suitability as phosphate-acceptor (in words) [1]: preferred
32 | O=P(O)(O)O [phosphoric acid] | could not be phosphate-donors | – | – | –
33 | O=P(O)(O)OP(=O)(O)O [pyrophosphoric acid] | could not be phosphate-donors | – | – | –
34 | O=P(O)(O)OP(=O)(O)OP(=O)(O)OP(=O)(O)O [tetrapolyphosphoric acid] | could not be phosphate-donors | – | – | –
35 | O=P(O)(O)OP(=O)(O)OP(=O)(O)O [tripolyphosphoric acid] | could not be phosphate-donors | – | – | –
